# In article PMC10747602, “Dose Response, Dosimetric, and Metabolic Evaluations of Replacement PFAS Perfluoro-(2,5,8-trimethyl-3,6,9-trioxadodecanoic) Acid (HFPO-TeA)” (Toxics, 2023):
# Where “and” joins values, the source holds several entries; their conditions need not be identical. Equal values may be shown once. Read-outs that look alike come from different tables or passages of the source.
# Tests used:
# [1] = Five-day oral gavage exposure: body weight, liver weights, clinical observations; format: in vivo, Sprague Dawley rats; conditions: for Body Weight Change / Liver Weight / Relative Liver Weight / Absolute Liver Weight / Body Weight Gain: 5 days
# Method: The in vivo exposure study was performed under a contract to Jacobs Technology, Inc. (Dallas, TX, USA; EP-C-15-008) and BioSpyder Technologies, Inc. (Carlsbad, CA, USA; 68HE0B20P0250). Animal handling was subcontracted out and performed by Integrated Laboratory Systems (ILS, Morrisville, NC, USA). All procedures followed Animal Welfare Act Regulations 9 CFR 1A, 1–4, and animals were handled and treated according to the Guide for the Care and Use of Laboratory Animals. Male and female Sprague Dawley rats (n = 36/sex) were purchased from Charles River Laboratory (Raleigh, NC, USA) and allowed to acclimate for 7–10 days before initial dosing. Animals were assigned to groups using analysis of variance (ANOVA) to ensure the mean body weights of the groups were not statistically different. Same-sex pairs were housed in polycarbonate cages (23 cm × 44 cm × 21 cm) with hardwood bedding (Northeastern Products Corp., Warrensburg, NY, USA), changed twice per week. Rats were kept in rooms maintained between 20.0 and 25.0 °C and 30.0 and 70.0% humidity while exposed to a 12 h light–dark cycle. Certified Purina Pico Chow No. 5002 (Ralston Purina Co., St. Louis, MO, USA) and reverse osmosis (RO)-treated tap water (City of Durham, NC, USA) were available ad libitum. Rats were 8–10 weeks old at the time of dosing and weighed between 228 and 302 g (males) and 208 and 232 g (females).
# Male and female rats (n = 4/sex, dose, and time point) were dosed by gavage (5 mL/kg bodyweight) once daily for five days with water (vehicle control) or HFPO-TeA at eight half-log dose levels ranging from 0.3 to 335.2 mg/kg/day (i.e., 0.3, 0.9, 2.3, 6.3, 17, 45.9, 124, and 335.2). The results reported here are part of a larger study, for which the main purpose was to use benchmark dose–response modeling of transcriptomic data to identify a gene set basis for the point of departure (POD).
# Clinical observations were performed prior to first administration and at termination. Moribundity and mortality were assessed twice daily on weekdays and once daily on weekends. Animals found moribund were euthanized by carbon dioxide inhalation and death was confirmed by cervical dislocation.
# Whole blood was collected from the retro-orbital plexus under isoflurane anesthesia 2 h following the first dose and by cardiac puncture 24 h after the last dosage. Blood was stored in anticoagulant potassium ethylenediaminetetraacetic acid (K3EDTA)-coated vacutainers, and then processed to isolate plasma via centrifugation. Animals were euthanized via carbon dioxide asphyxiation and subsequent exsanguination. Liver was collected, weighed, cubed, and divided into three aliquots. One aliquot of tissue was flash-frozen in liquid nitrogen and stored at −80 °C for analytical chemistry analyses. The remaining two aliquots were placed in RNALater and frozen for use in the companion transcriptomic study. Liver and plasma samples were received at the U.S. EPA Center for Computational Toxicology and Exposure, Advanced Analytical Chemistry Methods Branch in Research Triangle Park, North Carolina, USA, and stored at −80 °C prior to extraction.
# [2] = Liver-to-plasma partitioning (Kp); format: in vivo, Sprague Dawley rats; conditions: Sprague Dawley, rat, oral, 5 days
# Method: Liver samples were analyzed using the same analytical assessment procedure as the plasma dosimetry samples. Matrix blanks were analyzed with each sample set. HFPO-TeA was not detected in the blanks above the limit of quantitation (LOQ) of 1.58 µM. Statistical analysis is described in Supplementary Text S3, normalization calculations are described in Supplementary Text S5 [47], and the liver-to-plasma partitioning calculation is outlined in Supplementary Text S7 [32, 50, 51]. […]
# tube, and then further crashed with 200 µL ACN. This was repeated twice more to generate a final combined supernatant volume of 600 µL. Supernatants were stored at -20 °C prior to analysis.
# Samples were quantitated against matrix-matched calibration curves containing a minimum of 5 points spanning the range 0.99 – 141 ng/mg liver (wet weight, ww). For the calibration standards, commercial rat liver (BioIVT) was spiked with HFPO-TeA and PFHxDA, homogenized, and extracted using the above procedure.
# Support ing Text S7: Plasma-to-Liver Partitioning Calculations
# Concentrations of HFPO-TeA in liver and plasma were used to calculate experimental Kp values for both sexes across all dose levels using Equation A [3-5].
# [3] = 0.3 mg/kg/day, F, individual rats
# [4] = 0.3 mg/kg/day, F, mean ± SD n=4
# [5] = 0.3 mg/kg/day, M, individual rats
# [6] = 0.3 mg/kg/day, M, mean ± SD n=4
# [7] = 0.9 mg/kg/day, F, individual rats
# [8] = 0.9 mg/kg/day, F, mean ± SD n=4
# [9] = 0.9 mg/kg/day, M, individual rats
# [10] = 0.9 mg/kg/day, M, mean ± SD n=4
# [11] = 2.3 mg/kg/day, F, individual rats
# [12] = 2.3 mg/kg/day, F, mean ± SD n=4
# [13] = 2.3 mg/kg/day, M, individual rats
# [14] = 2.3 mg/kg/day, M, mean ± SD n=4
# [15] = 6.3 mg/kg/day, F, individual rats
# [16] = 6.3 mg/kg/day, F, mean ± SD n=4
# [17] = 6.3 mg/kg/day, M, individual rats
# [18] = 6.3 mg/kg/day, M, mean ± SD n=4
# [19] = 17 mg/kg/day, F, individual rats
# [20] = 17 mg/kg/day, M, individual rats
smiles,measurement,setting,value
"O=C(O)C(F)(OC(F)(F)C(F)(OC(F)(F)C(F)(OC(F)(F)C(F)(F)C(F)(F)F)C(F)(F)F)C(F)(F)F)C(F)(F)F (stereo not drawn) [HFPO-TeA, perfluoro-(2,5,8-trimethyl-3,6,9-trioxadodecanoic) acid]",Body Weight Change,[1]; [3],11.3 g and 8.5 g and 1.0 g and 5.1 g
same,Liver Weight,[1]; [3],10.2929 g and 10.0087 g and 10.5040 g and 10.1866 g
same,Relative Liver Weight,[1]; [3],4.458 g% and 4.431 g% and 4.573 g% and 4.489 g%
same,Absolute Liver Weight,[1]; [4],10.25 ± 0.2070 g
same,Body Weight Gain,[1]; [4],6.5 ± 4.4 g
same,Relative Liver Weight,[1]; [4],4.488 ± 0.062 g%
same,Body Weight Change,[1]; [5],28.2 g and 40.1 g and 48.5 g and 32.0 g
same,Liver Weight,[1]; [5],13.9494 g and 16.3796 g and 15.4580 g and 15.2495 g
same,Relative Liver Weight,[1]; [5],4.953 g% and 4.616 g% and 4.795 g% and 4.445 g%
same,Absolute Liver Weight,[1]; [6],15.2591 ± 1.0017 g
same,Body Weight Gain,[1]; [6],37.2 ± 9.0 g
same,Relative Liver Weight,[1]; [6],4.702 ± 0.220 g%
same,Body Weight Change,[1]; [7],8.6 g and 18.4 g and 10.4 g and 11.3 g
same,Liver Weight,[1]; [7],12.6621 g and 11.3910 g and 11.9531 g and 11.5466 g
same,Relative Liver Weight,[1]; [7],5.327 g% and 5.016 g% and 5.192 g% and 4.809 g%
same,Absolute Liver Weight,[1]; [8],11.8882 ± 0.5678 g
same,Body Weight Gain,[1]; [8],12.2 ± 4.3 g
same,Relative Liver Weight,[1]; [8],5.086 ± 0.224 g%
same,Body Weight Change,[1]; [9],46.0 g and 38.3 g and 37.4 g and 36.7 g
same,Liver Weight,[1]; [9],16.7977 g and 16.8117 g and 16.3850 g and 18.5738 g
same,Relative Liver Weight,[1]; [9],5.241 g% and 5.318 g% and 5.059 g% and 5.544 g%
same,Absolute Liver Weight,[1]; [10],17.1421 ± 0.9748 g
same,Body Weight Gain,[1]; [10],39.6 ± 4.3 g
same,Relative Liver Weight,[1]; [10],5.291 ± 0.201 g%
same,Body Weight Change,[1]; [11],21.5 g and 10.9 g and 8.5 g and 8.3 g
same,Liver Weight,[1]; [11],12.3341 g and 12.8755 g and 12.0585 g and 12.4504 g
same,Relative Liver Weight,[1]; [11],5.372 g% and 5.236 g% and 5.345 g% and 5.231 g%
same,Absolute Liver Weight,[1]; [12],12.4296 ± 0.3397 g
same,Body Weight Gain,[1]; [12],12.3 ± 6.2 g
same,Relative Liver Weight,[1]; [12],5.296 ± 0.073 g%
same,Body Weight Change,[1]; [13],37.5 g and 45.8 g and 38.2 g and 34.6 g
same,Liver Weight,[1]; [13],17.9851 g and 19.2395 g and 20.9175 g and 18.7875 g
same,Relative Liver Weight,[1]; [13],5.558 g% and 5.913 g% and 6.285 g% and 5.910 g%
same,Absolute Liver Weight,[1]; [14],19.2324 ± 1.2374 g
same,Body Weight Gain,[1]; [14],39.0 ± 4.8 g
same,Relative Liver Weight,[1]; [14],5.916 ± 0.297 g%
same,Body Weight Change,[1]; [15],-11.8 g and -21.3 g and -2.2 g and -35.7 g
same,Liver Weight,[1]; [15],10.2774 g and 9.4969 g and 12.9764 g and 9.4275 g
same,Relative Liver Weight,[1]; [15],4.807 g% and 5.025 g% and 6.242 g% and 5.243 g%
same,Absolute Liver Weight,[1]; [16],10.5446 ± 1.6664 g
same,Body Weight Gain,[1]; [16],-17.8 ± 14.3 g
same,Relative Liver Weight,[1]; [16],5.329 ± 0.634 g%
same,Body Weight Change,[1]; [17],27.5 g and 43.2 g and 31.7 g and 24.7 g
same,Liver Weight,[1]; [17],19.3187 g and 25.7576 g and 22.4062 g and 22.3377 g
same,Relative Liver Weight,[1]; [17],6.254 g% and 7.468 g% and 6.965 g% and 7.243 g%
same,Absolute Liver Weight,[1]; [18],22.4551 ± 2.6306 g
same,Body Weight Gain,[1]; [18],31.8 ± 8.1 g
same,Relative Liver Weight,[1]; [18],6.983 ± 0.527 g%
same,Body Weight Change,[1]; [19],-62.7 g and -52.1 g and -49.6 g and -56.3 g
same,Liver Weight,[1]; [19],9.7114 g and 9.8972 g and 9.1738 g and 9.9260 g
same,Relative Liver Weight,[1]; [19],6.002 g% and 5.659 g% and 5.567 g% and 5.958 g%
same,Absolute Liver Weight,"[1]; 17 mg/kg/day, F, mean ± SD n=4",9.6771 ± 0.3488 g
same,Body Weight Gain,"[1]; 17 mg/kg/day, F, mean ± SD n=4",-55.2 ± 5.7 g
same,Relative Liver Weight,"[1]; 17 mg/kg/day, F, mean ± SD n=4",5.796 ± 0.216 g%
same,Body Weight Change,[1]; [20],-36.3 g and -50.7 g and -59.7 g and -59.2 g
same,Liver Weight,[1]; [20],13.4969 g and 13.8697 g and 12.4995 g and 13.1122 g
same,Relative Liver Weight,[1]; [20],5.386 g% and 5.593 g% and 5.511 g% and 5.909 g%
same,Absolute Liver Weight,"[1]; 17 mg/kg/day, M, mean ± SD n=4",13.2446 ± 0.5851 g
same,Body Weight Gain,"[1]; 17 mg/kg/day, M, mean ± SD n=4",-51.5 ± 10.9 g
same,Relative Liver Weight,"[1]; 17 mg/kg/day, M, mean ± SD n=4",5.600 ± 0.223 g%
same,Abnormal clinical observations,"[1]; female rats, 6.3 mg/kg/day dose group",piloerection and thinness
same,Abnormal clinical observations (in addition),"[1]; female rats, 17 mg/kg/day dose group",coldness to touch and hunching
same,Abnormal clinical observations (alongside previous signs),"[1]; female rats, 45.9 mg/kg/day",Abnormal breathing
same,Abnormal clinical observations,"[1]; female rats, 124 mg/kg/day",decreased movement and lethargy
same,Abnormal clinical observations,"[1]; male rats, 17 and 45.9 mg/kg/day dose groups","lethargy, piloerection, thinness, hunching, coldness to touch, abnormal breathing, and decreased movement"
same,Kp at 120 h,"[2]; female, 0.3 mg/kg/day, F, mean ± SD n=4, read-out: Liver Kp (liver-to-plasma ratio)",7.81 ± 4.68
same,Kp at 120 h,"[2]; female, 0.9 mg/kg/day, F, mean ± SD n=4, read-out: Liver Kp (liver-to-plasma ratio)",4.04 ± 1.37
same,Kp at 120 h,"[2]; female, 2.3 mg/kg/day, F, mean ± SD n=4, read-out: Liver Kp (liver-to-plasma ratio)",1.9 ± 1.47
same,Kp at 120 h,"[2]; female, 6.3 mg/kg/day, F, mean ± SD n=4, read-out: Liver Kp (liver-to-plasma ratio)",1.65 ± 0.46
same,Kp at 120 h,"[2]; female, 17 mg/kg/day, F, mean ± SD n=4, read-out: Liver Kp (liver-to-plasma ratio)",0.903 ± 0.145
same,Kp at 120 h,"[2]; male, 0.3 mg/kg/day, M, mean ± SD n=4, read-out: Liver Kp (liver-to-plasma ratio)",7.28 ± 3.71
same,Kp at 120 h,"[2]; male, 0.9 mg/kg/day, M, mean ± SD n=4, read-out: Liver Kp (liver-to-plasma ratio)",3.38 ± 1.24
same,Kp at 120 h,"[2]; male, 2.3 mg/kg/day, M, mean ± SD n=4, read-out: Liver Kp (liver-to-plasma ratio)",1.54 ± 0.91
same,Kp at 120 h,"[2]; male, 6.3 mg/kg/day, M, mean ± SD n=4, read-out: Liver Kp (liver-to-plasma ratio)",3.41 ± 0.6
same,Kp at 120 h,"[2]; male, 17 mg/kg/day, M, mean ± SD n=4, likely influenced by high toxicity and stress, read-out: Liver Kp (liver-to-plasma ratio)",1.32 ± 0.55
